For 72 molecules, GHS category results are on record in the CATMoS acute toxicity set (Mansouri et al. 2021).

The data set in a line: GHS categories as the set defines them, by LD50: 1 up to 5, 2 up to 50, 3 up to 300, 4 up to 2000, 5 above 2000 mg/kg. To be noted: rat; in vivo; po.

The molecule `Nc1nc(N)nc(Nc2nc(N)nc(N)n2)n1` displayed a GHS category of 5.

In the case of `CC(O)C1=CCC(C(C)(C)O)CC1O` (configuration not stated), the GHS category is 5.

The molecule `CCCC/C=C/CC/C=C\CCCCCCOC(C)=O` registered a GHS category of 5.

In turn, `O=C1c2ccccc2CN2C(=O)c3ccccc3CN12` showed a GHS category of 5.

`COc1ccc2c(c1)CC[C@@H]1[C@@H]2CC[C@]2(C)C(=O)CC[C@@H]12` registered a GHS category of 5.

Molecule `CC1CCC(C(C)C)C(OC(=O)C2OC(O)CS2)C1` (configuration not stated) registered a GHS category of 5.

`C=C(C)COCC/C=C\CC` showed a GHS category of 5.

As to `Cc1cc(C(C)(C)C)c(O)c(C)c1Cn1c(=O)n(Cc2c(C)cc(C(C)(C)C)c(O)c2C)c(=O)n(Cc2c(C)cc(C(C)(C)C)c(O)c2C)c1=O`, the GHS category is recorded as 5.

Molecule `CCOC(=O)CCC(C)=O` returned a GHS category of 5.

`S=P(Oc1ccccc1)(Oc1ccccc1)Oc1ccccc1` registered a GHS category of 5.

On to `CCOS(=O)(=O)c1cc(C(C)(C)C)cc2cc(C(C)(C)C)ccc12`, for which the GHS category amounted to 5.

In turn, `CCC(C)n1ncn(-c2ccc(N3CCN(c4ccc(O)cc4)CC3)cc2)c1=O` (configuration not stated) returned a GHS category of 5.

With `CCCN(CC)CC1COC2(CCC(C(C)(C)C)CC2)O1` (configuration not stated), the GHS category was 4.

For the molecule `Nc1ccc(S(=O)(=O)O)cc1N`, the GHS category came to 5.

As to `O=C(OCc1cncs1)Oc1ccc([N+](=O)[O-])cc1`, the GHS category came out at 5.

For the molecule `CCC(C)CCC(C)(O)CC` (configuration not stated), the GHS category is reported as 5.

Turning to `OC1CCC2CCCCC2C1` (configuration not stated), the GHS category worked out at 5.

`CCCCCCCCCCCCCOC(=O)CCCCC(=O)OCCCCCCCCCCCCC` came in with a GHS category of 5.

Regarding `O=S(=O)(O)c1ccc(/N=N/c2c(O)ccc3cc(S(=O)(=O)O)ccc23)cc1`, the GHS category was found to be 5.

Regarding `COc1ccc2c(c1)CCN(c1ccccc1)C2c1cccc(Cl)c1` (configuration not stated), the GHS category worked out at 4.

`CC1(C)CC[C@@]2(C(=O)O)CC[C@@]3(C)C(=CC[C@H]4[C@]5(C)CC[C@@H](O)C(C)(C)[C@H]5CC[C@@]43C)[C@H]2C1` (racemic) came in with a GHS category of 5.

`CCCCCCCCCCCCCCCCCC#N` showed a GHS category of 5.

`CNCc1ccc(CSCCN/C(=N/S(C)(=O)=O)NCC(O)c2ccc(O)cc2)o1` (configuration not stated) showed a GHS category of 5.

Consider `C[C@]12CC[C@H]3[C@@H](CC[C@@]45O[C@@H]4C(O)=C(C#N)C[C@]35C)[C@@H]1CC[C@@H]2O`, for which the GHS category came out at 5.

The molecule `C=CCCCCC=C` gave a GHS category of 5.

In turn, `CN/C(=N\[N+](=O)[O-])NCc1cnc(Cl)s1` displayed a GHS category of 5.

The molecule `O=C(CC1Sc2ccccc2NC1=O)Nc1cccc(Cl)c1` (configuration not stated) returned a GHS category of 5.

Take `CCc1cc(C)cc(CC)c1-c1c(OC(=O)C(C)(C)C)n2n(c1=O)CCOCC2`: the GHS category came to 5.

Take `C=CC(=O)OCC(CC)(COCC(CC)(COC(=O)C=C)COC(=O)C=C)COC(=O)C=C`: the GHS category turned out to be 5.

For `CC(C)(N=C=O)c1ccc(C(C)(C)N=C=O)cc1`, the GHS category turned out to be 5.

Take `C[Si]1(C)O[Si](C)(c2ccccc2)O[Si](C)(C)O[Si](C)(c2ccccc2)O1` (configuration not stated): the GHS category amounted to 5.

`COc1cccc(OC)c1C(=O)NC(=O)Nc1c(F)cccc1F`: the GHS category came out at 4.

In the case of `c1ccc(Cn2ccnc2-c2nn[nH]n2)cc1`, the GHS category is on record as 5.

As to `CCCN[C@H]1CCc2nc(N)sc2C1`, the GHS category is reported as 4.

In turn, `OCC(O)COC1CCCCC1` (configuration not stated) gave a GHS category of 5.

In turn, `CCCCCCCCOC(=O)C(C)C` came in with a GHS category of 5.

`Cc1ccccc1OC(=O)c1ccccc1OC(N)=O`: the GHS category was 5.

`CC(C)=CCC/C(C)=C\COC(=O)C(C)C` registered a GHS category of 5.

As to `O=C(O)CN(CCCN(C(=O)O)C(=O)O)C(=O)O`, the GHS category was found to be 5.

For the molecule `CCn1nnnc1CSCCC(N)=O`, the GHS category amounted to 4.

In turn, `O=[N+]([O-])c1c(Cl)cccc1-c1c[nH]cc1Cl` gave a GHS category of 5.

With `CCCc1c(Cc2ccc(-c3ccccc3-c3nn[nH]n3)cc2)c(N(CC)CC)nc2ncnn12`, the GHS category is given as 4.

For the molecule `CNC(=O)C(=NNc1ccc(OC)cc1)C(C)=O`, the GHS category is given as 5.

As for `CCN(CC)C(=O)C(C)Oc1cccc2ccccc12` (configuration not stated), the GHS category was 5.

Regarding `NC(N)=Nc1nc(CSCC/N=C/NS(=O)(=O)c2ccc(Br)cc2)cs1`, the GHS category came to 5.

On to `CN1C(=O)COc2cc(C(=O)C=Cc3ccc(O)cc3)ccc21`, for which the GHS category worked out at 5.

For `CN1CC(c2ccon2)CC2c3cccc4[nH]cc(c34)CC21` (configuration not stated), the GHS category was determined as 4.

Molecule `COc1ccc2c(c1)CCN(c1ccccc1)C2c1ccc(F)cc1` (configuration not stated) came in with a GHS category of 4.

Molecule `O=C(CCc1ccc(O)cc1)Nc1ccccc1C(=O)O` gave a GHS category of 5.

Consider `CN1C(C(=O)Nc2ccccn2)=C(Nc2ccccn2)c2sc(Cl)cc2S1(=O)=O`, for which the GHS category was found to be 2.

Molecule `O=C(CCS)OCC(COC(=O)CCS)(COC(=O)CCS)COC(=O)CCS` yielded a GHS category of 4.

Consider `COc1cc([N+](=O)[O-])ccc1N=NC(C(C)=O)C(=O)Nc1ccccc1OC` (configuration not stated), for which the GHS category worked out at 5.

With `CNc1ccc(C(C)=O)cc1O`, the GHS category was found to be 5.

Molecule `O=C(O)CN(CCN(CC(=O)O)CC(=O)O)CCN(CC(=O)O)CC(=O)O` (racemic) had a GHS category of 5.

On to `ClCC(Cl)C(Cl)(Cl)Cl` (configuration not stated), for which the GHS category amounted to 4.

Molecule `C[C@H]1C[C@@H]2[C@H]([C@@H](O)C[C@@]3(C)[C@H]2CC[C@]3(O)C(=O)COC(=O)CCC(=O)O)[C@@]2(C)C=CC(=O)C=C12` returned a GHS category of 5.

With `CCCCCCCCCC`, the GHS category was 5.

Regarding `COC1[C@@H](O[C@@H]2O[C@H](C)[C@@H](O[C@H]3C[C@@](C)(O)[C@H](OC(=O)CC(C)C)[C@H](C)O3)[C@H](N(C)C)[C@H]2O)[C@@H](CC=O)C[C@@H](C)[C@@H](O)C=CC=CC[C@@H](C)OC(=O)C[C@H]1OC(C)=O` (some centres not stated), the GHS category was 5.

`CC/C=C\CCCCCCCCOC(C)=O` had a GHS category of 5.

Molecule `CC(=O)Nc1ccc(OC(=O)c2cccs2)cc1` came in with a GHS category of 5.

With `CC(C)CCCCCCCCCCCCCCCO`, the GHS category is on record as 5.

Molecule `CCCCCCCC(=O)OCCCCCC` registered a GHS category of 5.

With `CC(C)c1cc(C(C)C)c(N)c(C(C)C)c1N`, the GHS category is recorded as 4.

The molecule `COc1ccc(CCC(C)=O)cc1` returned a GHS category of 5.

Molecule `CCCc1c(Cc2ccc(-c3ccccc3-c3nn[nH]n3)cc2)cnc2ncnn12` had a GHS category of 4.

Regarding `C=C(C)C(=O)O[Si](C(C)C)(C(C)C)C(C)C`, the GHS category is recorded as 5.

For the molecule `COc1ccc2cc([C@H](C)C(=O)OCCN3CCN(CCOC(=O)[C@@H](C)c4ccc5cc(OC)ccc5c4)CC3)ccc2c1`, the GHS category was 5.

Regarding `CCN(C(=O)CCCSc1nnnn1C)C1CCCCC1O` (configuration not stated), the GHS category is listed as 4.

As to `O=C(C(Cl)Cl)N(CCO)Cc1ccc(Oc2ccc([N+](=O)[O-])cc2)cc1`, the GHS category is recorded as 5.

Consider `CCCCCCCCCCCC(=O)OC1CC(C)(C)NC(C)(C)C1`, for which the GHS category came out at 5.

`CCOC(=O)/C(Cl)=C/c1cc(N2C(=O)C3=C(CCCC3)C2=O)ccc1Cl`: the GHS category came to 5.

The molecule `CC/C=C\CCOC(C)=O` yielded a GHS category of 5.
